From US8278072B1, “Method for synthesis of sialylated products using reversible sialylation” (Health Research, Inc., priority 2007, dated 2012)

Key:
Type in all cases: biochemical
ST3Gal-II [1] = biological target: T1, ST3Gal-II (Rattus norvegicus, UniProt Q11205); experiment: Effect of O-glycans with sialyl or sulfo substituents on reverse sialylation from [9-3H] sialyl fetuin; details: 6.0 mM compound, [9-3H] sialyl fetuin donor, 20 mM 5′-CMP, 20 h
T1 construct: purchased Calbiochem
T1 sequence (Q11205 1-350): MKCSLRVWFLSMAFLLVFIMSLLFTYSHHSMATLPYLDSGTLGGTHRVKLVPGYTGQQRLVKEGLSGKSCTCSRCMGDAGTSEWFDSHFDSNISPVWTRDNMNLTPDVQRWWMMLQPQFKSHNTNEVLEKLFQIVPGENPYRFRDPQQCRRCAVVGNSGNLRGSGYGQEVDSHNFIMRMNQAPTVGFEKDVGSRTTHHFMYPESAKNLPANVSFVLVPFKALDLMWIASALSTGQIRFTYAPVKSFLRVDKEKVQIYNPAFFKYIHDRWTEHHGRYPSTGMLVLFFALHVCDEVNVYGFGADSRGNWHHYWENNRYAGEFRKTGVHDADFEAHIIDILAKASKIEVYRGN
Method: FIG. 6. Effect of sialyl or sulfo substituents in O-glycan chain on the reverse sialylation by ST3Gal-II. Incubation mixtures (600 μl) contained [9-^3H] sialyl fetuin (5 mg), 200 mM NaCa Codylate pH 6.0, 20 mM 5′-CMP, […] ST3Gal-II and the following: a. 6.0 mM NeuAcα2,3Galβ1,4GlcNAcβ1,6 (Galβ1,3)GalNAcα-O-Bn, b. 6.0 mM 3-O-SulfoGalβ1,4GlcNAcβ1,6(Galβ1,3)GalNAcα-O-Bn or c. 6.0 mM Galβ1,6GlcNAcβ1,6(3-O-Sulphoβ1,3Gal)GalNAcα-O-Bn along with 50 mU ST3Gal-III. Products were fractionated using Biogel P2 column after 20 h at 37° C. Unused [9-^3H] sialyl fetuin (peak 1) appears prior to [9-^3H]Sialyl product from acceptor (peak 2) and CMP-[9-^3H]NeuAc (peak 3). Product identities were verified using LC-MS as indicated by molecular weights noted in the panels.
For these studies, [9-^3H] sialyl fetuin was prepared by the action of ST3Gal-II on fetuin in the presence of CMP-[9-^3H]NeuAc. Radioactivity incorporation into the O-glycan chain of the glycoprotein was confirmed by treating the labeled molecule with alkaline borohyrdride (1MNaBH4 in 0.1MNaOH at 45° C. for 24 hours) and detecting the released radioactivity. During these studies, sialyl fetuin was incubated with 5′-CMP, one of the above mentioned compounds, and sialyltransferase for 20 hours, and the product formed was eluted using a Biogel P2 column. […] Consequently no radioactivity was associated with the acceptor. […] The use of distinct compounds to differentially alter reverse and forward sialylation function further supports the concept that ST3Gal-II may have more than one catalytic function.

ST3Gal-II [2] = biological target: T1, ST3Gal-II; experiment: Reverse sialylation equilibrium constant (Keq) and 5′-CMP dose dependence; details: for Keq (dimensionless units), reverse sialylation equilibrium constant: acceptor 5′-CMP
Method: FIG. 2. Equilibrium constant. a. Reversible sialyltransferase activity at increasing concentration of 5′-CMP. 0.15 mM of donor [9-^3H]NeuAcα2,3Galβ1,3(4-FGlcNAcβ1,6)GalNAcα-O-Bn [9-^3H[2]] was incubated with varying concentrations of 5′-CMP and 0.15 mU ST3Gal-II under conditions described in FIG. 1 for 2 hours. The consumption of the [9-^3H]NeuAc benzyl glycoside donor was measured by subjecting the incubation mixture to Sep-Pak C18 fractionation, which binds the donor and not CMP-[9-^3H]NeuAc. The reaction proceeded to ½ the maximum extent at 80 μM 5′-CMP. b. Equilibrium constant Keq (=0.35) calculated for data in panel a. c. Varying concentrations of 5′-CMP was sialylated with ST3Gal-II (2.0 mU) using either 0.15 mM (panel c) or 1.5 mM (not shown) sialyl donor [9-^3H]NeuAcα2,3Galβ1,3GalNAcβ1,3Galα-O-Me [9-^3H[3]] for 4 hours. The product CMP-[9-^3H]NeuAc and the unused [9-^3H[3]] were separated and quantitated by Dowex-1-Formate method. d. Equilibrium constant, Keq=98.9. Diamonds denote data from 1.5 mM runs while data from 0.15 mM runs are depicted by squares.
a) Biogel P2 chromatography: A Biogel P2 column (Fine Mesh; 1.0×116.0 cm) was used with 0.1 M pyridine acetate (pH5.4) as the eluent at room temperature. […] Fractions of 1.0 ml were collected. The bound material was then eluted with 0.5M GlcNAc or 0.2M Gal in the same buffer. […] Calculation of equilibrium constant, Keq: Equilibrium constant was calculated for selected reversible bimolecular reactions that are denoted by:
[formula] Here, [9-^3H]D* denotes the radiolabeled donor and D′ is the donor after removal of sialic acid. Similarly, A and [9-^3H]A* denote the acceptor before and after incorporation of NeuAc. In each run, unreacted [9-^3H]D* and product [9-^3H] A* are measured using radioactivity measurements. The equilibrium constant (Keq=kreverse/kforward, dimensionless units) are then determined using the following equation, where terms in square brackets denote concentrations:
[formula] [D0] and [A0] are initial donor and acceptor concentrations. A plot of [D*]/([D0]−[D*]) versus [A*]/([A0]−[A*]) yields Keq from slope data. Keq<1 implies that the forward reaction is favored and the reaction proceeds to the right side to form [9-^3H]A* efficiently. Liquid Chromatography Coupled with Tandem Mass Spectrometry (LC/MS/MS)
Similar results were observed upon increasing concentrations of 5′-CMP when [9-^3H]NeuAcα2,3Galβ1,3(4-FGlcNAcβ1,6) GalNAcα-O-Bn [9-^3H[2]] was donor (FIG. 2a, b). The concentration of 5′-CMP that mediated half-maximal transfer of [9-^3H]NeuAc was 80 μM. The bimolecular equilibrium constant (Keq) for this reaction was 0.35 (dimensionless units, Table I). Indeed, the Keq varied depending on the donor and it was 98.9 when the donor was based on the globo glycolipid, [9-^3H]NeuAcα2,3Galβ1,3GalNAcβ1,3 Gala-O-Me [[9-^3H] [3]] (FIG. 2c, d). Upon comparing and [3], it is apparent that reverse sialylation proceeds more effectively in the case of [2]. To further confirm the above estimates of Keq for core-2 based structures, we also calculated this parameter for our previously published data where [9-^3H]CMP-NeuAc was donor and mucin core-2 tetrasaccharide Galβ1,4GlcNAcβ1,6(Galβ1,3)GalNAcα-O-Bn was acceptor. In this case, Keq measured with respect to the rate of mucin core-2 sialylation was 5.55 (data not shown), which translates to a reverse sialylation Keq of 0.18.

ST3Gal-II [3] = biological target: T1, ST3Gal-II; experiment: Serial transfer of sialic acid from donor via 5′-CMP to acceptors (scheme-II)
Method: FIG. 3. Serial transfer of sialic acid using scheme-II was followed at increasing concentrations of acceptor D-Fucβ1,3GalNAcα-O-Bn. The donor used was either: i) 0.15 mM [9-^3H]CMP-NeuAc; or, ii) 0.15 mM [9-^3H]NeuAcα2,3Galβ1,3(4-FGlcNAcβ1,6)GalNAcα-O-Bn [9-^3H [2]] in the presence of 2.0 mM 5′-CMP, or iii) [9-^3H]NeuAcα2,3Galβ1,3(6-O-SulfoGlcNAcβ1,6)GalNAcα-O—Al [[9-^3H] [4]] in the presence of 2.0 mM 5′-CMP. In runs where [9-^3H [2]] was donor since both and [2] bind C18 cartridges, control runs were performed in the absence of D-Fucβ1,3GalNAcα-O-Bn to estimate the amount of [9-^3H]CMP-NeuAc formed under the experimental conditions. 80-85% of the radioactivity was transferred to CMP-NeuAc in these runs. The amount of CMP-NeuAc remaining in runs with was then subtracted from CMP-NeuAc radioactivity in the control run to determine the amount of sialylated. To complement this run, studies were also performed with [[9-^3H] […] In these runs, the amount of sialylated was determined by measuring radioactivity retained in the C18-cartridge. a. Equilibrium constant was 5.55 when CMP-[9-^3H]NeuAc was donor. b. ˜10-fold lower acceptor concentration was required for similar extents of reaction when CMP-[9-^3H]NeuAc was donor, compared to core-2 based donors and [4].
We tested the possibility that CMP-NeuAc formed above may be available for transfer to other acceptors using ST3Gal-II (scheme-II, FIG. 3). For this, three radiolabeled donors were prepared using methods described above: two were based on the mucin Core-2 structure ([[9-^3H] [1]] and [9-^3H]NeuAcα2,3Galβ1,3(6-O-SulfoGlcNAcβ1,6)GalNAcα-O—Al [[9-^3H] [4]]) while the third was based on the Globo glycolipid ([9-^3H] [3]). The transfer of [9-^3H]NeuAc from these sialylated donors to various T-hapten (Galβ1,3GalNAcα) and mucin core2-based glycoside acceptors in the presence of 5′-CMP and ST3Gal-II was assessed (Table III). All three […] of ST3Gal-II ([1], [3] and [4]) allowed formation of CMP-[9-^3H]NeuAc, and a diverse array of products.
The transfer of [9-^3H]NeuAc from [[9-^3H][1]] to D-Fucβ1,3GalNAcα-O-Bn in the presence of 5′-CMP and ST3Gal-II increased linearly in the first two hours and it reached saturation at 4 hours (FIG. 12), and thus the data in Table III (4 hours time point) represent equilibrium conditions. […] Further, diverse sialylated products can be formed using the same synthetic sialylated donor.
In order to compare the efficiency of individual reactions of scheme II, independent runs were performed where either 0.15 mM [9-^3H]CMP-NeuAc, 0.15 mM [9-^3H] [2] or 0.15 mM [9-^3H] [4] was the donor, and [5] was the acceptor (FIG. 3). 2 mM 5′-CMP was added in runs with core-2 donors and [4], and thus reverse sialylation of these molecules was feasible. Keq for transfer of sialic acid from CMP-NeuAc to [5] was 5.55 (FIG. 3a). […] (˜6 mM) or [9-^3H[4]] (˜6 mM). Thus, while the two-step mechanism results in lower conversion than CMP-NeuAc alone, the transfer of NeuAc still takes place at an appreciable rate.

Question: For `CC(=O)N[C@H]1[C@H](OC[C@H]2O[C@H](OCc3ccccc3)[C@H](NC(C)=O)[C@@H](O[C@@H]3O[C@H](CO)[C@H](O)[C@H](O)[C@H]3O)[C@H]2O)O[C@H](CO)[C@@H](O[C@@H]2O[C@H](CO)[C@H](O)[C@H](OS(=O)(=O)O)[C@H]2O)[C@@H]1O` [3-O-SulfoGalβ1,4GlcNAcβ1,6(Galβ1,3)GalNAcα-O-Bn], which “Effect on reverse sialylation (CMP-NeuAc formation and product formation)” value (“Effect on reverse sialylation” below) (ST3Gal-II [1]) is on record?
Answer: inhibits formation of the intermediate CMP-NeuAc

Question: `CC(=O)N[C@H]1[C@H](OC[C@H]2O[C@H](OCc3ccccc3)[C@H](NC(C)=O)[C@@H](O[C@@H]3O[C@H](CO)[C@H](O)[C@H](OS(=O)(=O)O)[C@H]3O)[C@H]2O)O[C@H](CO)[C@@H](O[C@@H]2O[C@H](CO)[C@H](O)[C@H](O)[C@H]2O)[C@@H]1O` [Galβ1,4GlcNAcβ1,6(3-O-SulfoGalβ1,3)GalNAcα-O-Bn] was tested. Which “Effect on reverse sialylation” value (ST3Gal-II [1]) did it give?
Answer: permits both the formation of CMP-NeuAc from 5′-CMP

Question: Which results are given for `CC(=O)N[C@H]1[C@H](OC[C@H]2O[C@H](OCc3ccccc3)[C@H](NC(C)=O)[C@@H](O[C@@H]3O[C@H](CO)[C@H](O)[C@H](O)[C@H]3O)[C@H]2O)O[C@H](CO)[C@@H](O[C@@H]2O[C@H](CO)[C@H](O)[C@H](O)[C@H]2O)[C@@H]1O` [[10], Galβ1,4GlcNAcβ1,6(Galβ1,3)GalNAcα-O-Bn]?
Answer: Keq measured with respect to the rate of mucin core-2 sialylation (ST3Gal-II [2]; [9-3H]CMP-NeuAc donor, mucin core-2 tetrasaccharide acceptor, calculated for previously published data): 5.55; Keq (dimensionless units), reverse sialylation equilibrium constant (ST3Gal-II [2]; translated from Keq 5.55 of mucin core-2 sialylation, previously published data): 0.18; Incorporation of [9-3H]NeuAc from donor [1], percent of the CPM incorporated into [5] (ST3Gal-II [3]; acceptor 2.5 mM, 150 μM donor [1], 1 mM 5′-CMP, 4 hours): 20.5%; Incorporation of [9-3H]NeuAc from donor [4], percent of the CPM incorporated into [5] (ST3Gal-II [3]; acceptor 2.5 mM, 150 μM donor [4], 1 mM 5′-CMP, 4 hours): 8.4%

Question: How did the “Effect on reverse sialylation” value (ST3Gal-II [1]) turn out when “NeuAcα2,3Galβ1,4GlcNAcβ1,6(Galβ1,3)GalNAcα-O-Bn” was run?
Answer: prevents product formation without inhibiting CMP-NeuAc formation

Question: “[9-^3H]NeuAcα2,3Galβ1,3(4-FGlcNAcβ1,6)GalNAcα-O-Bn [[2]]” was tested. Which “Keq (dimensionless units), reverse sialylation equilibrium constant” value (ST3Gal-II [2]; sialylated donor) did it give?
Answer: 0.35

Question: What about the “amount of acceptor [5] required for comparable transfer” value (ST3Gal-II [3]; 0.15 mM donor, 2 mM 5′-CMP with core-2 donors) of the same molecule?
Answer: ~6 mM

Question: And the “radioactivity transferred to CMP-NeuAc” value (ST3Gal-II [3]; control runs without acceptor [5], 2.0 mM 5′-CMP)?
Answer: 80-85%
